“And” between values parts separate entries of the source, which are not always exact repeats. Equal values may be shown once.
Tests used:
[1] = system: TBI rats; assay: Skilled forelimb reaching task in TBI rats; format: in vivo, Sprague-Dawley rats; settings: 30 mg/Kg intravenous at 0-7 days after TBI
Description: Adult male Sprague-Dawley rats (each weighted about 250-300 g, and were purchased from BioLASCO Taiwan Co., Ltd) were used in this study. The rats were randomly allocated into three groups: (i) TBI+test Compound (e.g., Compound 1 or valproic acid (VPA)), (ii) TBI+VEH (i.e., vehicle-treated TBI rats), and (iii) Sham (sham-operated control). They were housed in an animal room under temperature control (24-25) and 12:12 light-dark cycle. Standard laboratory rat chow and tap water were available ad libitum. All animal experiments were carried out in accordance with the guidelines established by the Institutional Animal Care and Utilization Committee of the Taipei Medical University (Taipei, Taiwan, R.O.C.).
Surgical anesthesia was induced by ketamine (90 mg/kg body weight) and xylazine (10 mg/kg body weight), which were administered intraperitoneally (ip). Following anesthesia, the animals were secured in a stereotaxic frame and ventilated mechanically. A cortical contusion was produced on the exposed cortex using a controlled impactor device TBI-0200 TBI Model system (Precision Systems and Instrumentation). […]
All test animals were trained to criterion on the skilled forelimb reaching task. […] During the initial days of training, limb preference was determined and placement of pellets was adjusted to favor the use of the preferred forelimb. […]

[2] = system: MCAO rats; assay: Infarction volume (TTC staining) in middle cerebral artery occlusion (MCAO) rats; format: in vivo; settings: 30 mg/Kg intravenous, N=5 per group, 3 days
Experimental: (§1) In this example, effects of compounds of this invention were varified using ischematic stroke animal model.
(§2) The bilateral common carotid arteries were isolated through a neck incision and occluded with aneurysm clips. […] After 60 minutes, rats were re-anesthetized, the carotid clips were removed, and the neck incision was closed. The rats were returned to their home cage after fully recovered from anesthesia. The sham surgery is similar to the MCAO surgery, which included the step of opening the dura, yet without the steps of isolating, clipping, or coagulating neither the MCA nor carotid vessel.
Compound 1 was dissolved in 5% ethanol, 35% polyethylene glycol and 60% normal saline at a concentration of 15 mg/ml. […]
Medicaments prepared in accordance with steps described in Example 4.2 were given to the 3 groups of MCAO rats of Example 4.1 (N=5, for each group), and the infraction area of these animals were then stained and estimated by similar steps described in Examples 3.4 and 3.5, and results are illustrated in FIGS. 7A and 7B. […] In another example, after induction of MACO, rats were infused with compound 1 at 30 min, 2 hrs, 4 hrs, and 24 hrs, respectively; and the infarction volume was calculated 3 days after MCAO.

[3] = system: cAMP response element-binding protein (CREB); assay: Western blot analysis of CREB in brain of MCAO rats; format: in vivo; settings: 30 mg/Kg intravenous, RA, LA, RP, LP brain areas
Experimental: as §1, §2
Compound 1 was dissolved in 5% ethanol, 35% polyethylene glycol and 60% normal saline at a concentration of 15 mg/ml. All test animals received intravenous injection of either compound 1 (30 mg/Kg), valproic acid (VPA, 30 mg/kg) or vehicle (5% ethanol, 35% polyethylene glycol and 60% normal saline) at 0-7 days after MCAO.
Collected protein samples were mixed with Laemli sample buffer. […] The Immunoblottingquantification was fulfilled via Quantity OneTMsoftware (Bio-Rad).
Level of CREB phosphorylaiton was measured by western blot ananlysis in accordance with steps described in Example 4.3. […]

[4] = system: heart failure (HF) rats; assay: Echocardiography in isoproterenol-induced heart failure (HF) rats; format: in vivo, Wistar rats
Experimental: Adult male Wistar rats (each weighted about 240-270 g, and were purchased from BioLASCO Taiwan Co., Ltd) were used in this study. […] Heart failure (HF) rats received one subcutaneous injection of isoproterenol at a dosage of 100 mg/Kg. They were housed in an animal room under temperature control (24-25° C.) and 12:12 light-dark cycle. Standard laboratory rat chow and tap water were available ad libitum. […] A midline thoracotomy was then performed, and the heart was removed, weighed, and dissected from each rat for further analysis. Echocardiograms were performed before the animals were euthanized, using HP Sonos 5500 system with a 15-6L probe (6 to 15 MHz, SONOS 5500, Agilent Technologies, Palo Alto, Calif.) or Vivid I ultrasound cardiovascular system (GE Healthcare, Haifa, Israel). LV end-diastolic diameter (LVEDD), LV end-systolic diameter (LVESD), and wall thickness were measured from M-mode tracings. The LV fractional shortening percentage was calculated as ([LVEDD-LVESD]/LVEDD)×100. The LV ejection fraction was calculated by Techholz's formula. All quantitative data are expressed as the mean±S.E.M, and un-paired T test was used to compare the differences between groups.

[5] = HF rats, after treatment, 100 mg/kg oral gavage once daily for 7 days, mean±S.E.M
[6] = HF rats, before treatment (baseline of the group), n = 7, mean±S.E.M

CCCC(CCC)C(=O)O [VPA, valproic acid]
Behaviour function deficits (skilled forelimb reaching task), FIG. 6 [1]: significantly improve the behaviour function deficits caused by TBI
Infarction volume, FIG. 7A [2]: significant reduction of infarction volume
Up-regulation of CREB (p-CREB and t-CREB), FIG. 8 [3]: up-regulation of cAMP response element-binding protein (CREB)

O=C(/C=C/c1ccc2c(ccn2S(=O)(=O)c2ccccc2)c1)NO [compound 1, 3-(1-benzensulfonyl-1H-indol-5-yl)-N-hydroxy-acrylamide]
Fraction shortening [4, 5]: 47 ± 3 %
IVSd [4, 5]: 1.3 ± 0.1 mm
LVEDd [4, 5]: 4.6 ± 0.2 mm
LVESd [4, 5]: 2.4 ± 0.2 mm
Ejection fraction ([4]; HF rats, after treatment, 100 mg/kg oral gavage once daily for 7 days, mean±S.E.M, 100 mg/kg): 81% and 81 ± 3 %
Ejection fraction [4, 6]: 68 ± 2%
Fraction shortening [4, 6]: 38 ± 3%
IVSd [4, 6]: 1.4 ± 0.1 mm
LVEDd [4, 6]: 5.4 ± 0.4 mm
LVESd [4, 6]: 3.4 ± 0.3 mm

NNc1nncc2ccccc12 [hydralazine, reference compound]
Ejection fraction ([4]; HF rats (isoproterenol 150 mg/kg s.c.), after 10 mg/kg i.p. once daily for 7 days, data not shown): 76±10%
Ejection fraction ([4]; HF rats (isoproterenol 150 mg/kg s.c.), starting value that the ejection fraction increased from, data not shown): 59±4%

Source: patent US9296692B2, “Use of indolyl and indolinyl hydroxamates for treating heart failure of neuronal injury” (TAIPEI MEDICAL UNIVERSITY, priority 2011, dated 2016)
